Experimental data published in patent publication US20110092484A1, “THERAPEUTIC OR PROPHYLACTIC AGENT FOR CEREBRAL ANEURYSM” (NIPPON CHEMIPHAR CO., LTD., priority 2007, published 2011).
“Also recorded” adds a separate entry of the source.

What was measured:
cathepsin B [1] = molecular target: cathepsin B (Homo sapiens, UniProt P07858); experiment: Inhibition of cathepsin B (IC50); format: biochemical; conditions: read-out: IC 50 for cathepsin B
cathepsin S = cathepsin S (Homo sapiens, UniProt P25774); experiment: Inhibition of cathepsin S (IC50); format: biochemical; conditions: read-out: IC 50 for cathepsin S
matrix metalloproteases = experiment: Inhibition of other proteases; format: biochemical
[2] = test system: experimentally induced cerebral aneurysms; experiment: Experimentally induced cerebral aneurysm model, histopathology of the ACA/OA bifurcation; format: in vivo, SD (Sprague-Dawley) rats
Protocol: After the induction of pentobarbital anesthesia (50 mg/kg), the left common carotid artery and posterior branches of the bilateral renal arteries were ligated at the same time with 10-0 nylon in 7 week-old male SD (Sprague-Dawley) rats. Animals were fed special food containing 8% sodium chloride and 0.12% β-aminopropionitrile (an inhibitor of lysyl oxidase that catalyzes the cross-linking of collagen and elastin). Blood pressure was measured by tail-cuff method. Animal care and experiments complied with Japanese community standards on the care and use of laboratory animals.
A total of 18 rats were orally given 50 mg/kg/day of the inhibitor. Immediately after aneurysm induction, rats were fed food with (n=18) or without (n=21) 50 mg/kg/day of the inhibitor, and sacrificed after three months. The ACA/OA bifurcation was stripped and observed under a light microscope after Elastica van Gieson staining. Early aneurysmal change refers to a lesion with the discontinuity of the internal elastic lamina without apparent outward bulging of the arterial wall. Advanced aneurysm refers to an obvious outward bulging of the arterial wall with the fragmentation or disappearance of the internal elastic lamina. After immunohistochemistry for CD68, the number of CD68-positive cells was counted on each section. Three independent researchers assessed the histopathological changes.
The values were expressed as means Standard deviation (SD). Statistical analysis was performed by using Student's t-test for a two-group comparison and one-way ANOVA followed by Fisher test for a multiple comparison. The incidence of aneurysmal changes was analyzed by the use of Fisher's exact test. Differences were considered statistically significant at P<0.05.

[3] = Serum concentration of the inhibitor in treated rats; format: in vivo; conditions: 50 mg/kg/day orally in food
CD68-positive cells = experiment: Macrophage infiltration around aneurysms (CD68-positive cells counted); format: in vivo, rats; conditions: 50 mg/kg/day, n=10; control 5.3±1.5; did not differ
Protocol: Three months after aneurysm induction, all rats (n=10) were deeply anesthetized and perfused transcardinally with 4% paraformaldehyde. As a control, age-matched male Sprague-Dawley rats were euthanized as described above. The anterior cerebral artery/olfactory artery (ACA/OA) bifurcation was stripped, embedded and cut into 5 μm sections. After blocking with 5% Donkey serum, primary antibodies were incubated for one hour at room temperature followed by incubation with fluorescence labeled secondary antibodies for one hour at room temperature. The secondary antibodies were FITC-conjugated donkey anti-goat IgG antibody, FITC-conjugated donkey anti-rabbit IgG antibody, Cy3-conjugated donkey anti-mouse IgG antibody, and Cy3-conjugated donkey anti-rabbit IgG antibody. Then the slides were covered with PERMAFLUOR (Immunotec) and excited for fluorescence by illumination through a fluorescence microscope system (Olympus). […]
A total of 18 rats were orally given 50 mg/kg/day of the inhibitor. […] After immunohistochemistry for CD68, the number of CD68-positive cells was counted on each section. Three independent researchers assessed the histopathological changes.

cathepsin B [4] = molecular target: T1, cathepsin B (Rattus norvegicus, UniProt P00787); experiment: Cathepsin B activity in aneurysmal walls, azo-coupling method (in situ); format: in vivo; conditions: three months after aneurysm induction, treated rats
T1 construct: from tissue; host or cells: frozen sections of rat cerebral aneurysmal wall (Sprague-Dawley rats)
Protocol: In order to examine cathepsin B activity in aneurysmal walls, azo-coupling method (in situ) was performed. Three months after aneurysm induction, rats (n=6 in each group) were euthanized as described above. Five μm frozen sections were incubated for one hour at 37° C. with 3.2 mM Z-arg-arg-4-Methoxy-2-Naphthylamine (Cosmo Bio) in 100 mM potassium phosphate buffer containing 10% polyvinyl alcohol, 10 mM dithiothreitol, 2.7 mM L-Cysteine and 1.3 mM EDTA (Sigma). After then, the slides were placed in 125 mg/ml of N-ethylmaleimide in potassium phosphate buffer following at 55° C. for 5 minutes, followed by incubation with Fast Blue Solution (Fast Blue 21 mg/100 ml of potassium phosphate solution, Sigma) for thirty minutes and 0.1M cupric sulfate solution for 15 minutes at room temperature. After washing with physiological saline, the slides were covered with PERMAFLUOR (Immunotec).

collagenase I = experiment: Collagenase activity in lysate of the whole Willis ring, type I collagen; format: in vivo; conditions: treated rats n=5, P=0.014
Protocol: (§1) One hundred fifty […] of protein was used in one experiment (n=5 in each group). Collagenase activity was measured using Collagenase Activity Measurement Kit (Life Laboratory). Briefly, fluorescence labeled type I or IV collagen was incubated with the lysate of the whole Willis ring for one hour at 37° C. Undigested fluorescence labeled collagen was extracted in ethanol solution and measured by fluorospectrometer with excitation 496 nm and measurement 520 nm. Collgenase activity (U/ml) was calculated by the fluorescence intensity according to the formula given in the manufacture's direction.

collagenase IV = experiment: Collagenase activity in lysate of the whole Willis ring, type IV collagen; format: in vivo; conditions: treated rats n=5, P=0.044
Protocol: as §1

T1 sequence (P00787 80-333): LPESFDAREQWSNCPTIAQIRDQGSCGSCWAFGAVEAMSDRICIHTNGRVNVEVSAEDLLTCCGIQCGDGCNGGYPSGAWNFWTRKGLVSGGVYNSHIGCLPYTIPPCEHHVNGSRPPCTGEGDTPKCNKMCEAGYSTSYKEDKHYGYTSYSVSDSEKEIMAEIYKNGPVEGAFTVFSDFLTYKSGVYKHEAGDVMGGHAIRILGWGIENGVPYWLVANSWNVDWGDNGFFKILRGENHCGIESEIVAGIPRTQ
Chain of cathepsin S (P25774 115-331, species assumed): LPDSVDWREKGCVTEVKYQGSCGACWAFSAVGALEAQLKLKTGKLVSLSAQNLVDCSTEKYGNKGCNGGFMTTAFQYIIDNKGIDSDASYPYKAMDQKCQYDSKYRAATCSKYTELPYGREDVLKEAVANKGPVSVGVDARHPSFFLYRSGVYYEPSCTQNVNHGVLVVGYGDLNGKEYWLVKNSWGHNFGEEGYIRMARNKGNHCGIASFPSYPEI

SMILES: CC(C)COC[C@H](CC(C)C)NC(=O)[C@H]1O[C@@H]1C(=O)O [cysteine protease inhibitor, monosodium (2S,3S)-3-[[(1S)-1-isobutoxymethyl-3-methylbutyl]carbamoyl]-oxirane-2-carboxylate]
- IC50 (cathepsin B [1]): 0.284 µM
- IC50 (cathepsin S): 0.186 µM
- Inhibition of other proteases such as matrix metalloproteases (matrix metalloproteases): did not inhibit
- Rats that developed advanced aneurysms ([2]; 50 mg/kg/day in food, three months after aneurysm induction, control 19 of 21): 5 of 10
- Rats that showed early aneurysmal changes ([2]; 50 mg/kg/day in food, three months after aneurysm induction, of 10 rats, control 2 of 21): 4 rats
- Incidence of all aneurysmal changes versus control group ([2]; 50 mg/kg/day, three months): not different
- Rate (incidence) of advanced aneurysms versus control group ([2]; 50 mg/kg/day, three months, P=0.022): significantly lower; also recorded: dramatically reduced
- Serum concentration [3]: 628.5 ± 22.3 nM
- Macrophage infiltration per 50 μm×50 μm field around aneurysms (CD68-positive cells): 4.9±1.7 cells/field
- Cathepsin B activity at the aneurysmal walls versus untreated aneurysm rats (cathepsin B [4]): reduced
- Collagenase I activity versus control group (collagenase I): significantly lower
- Collagenase IV activity versus control group (collagenase IV): significantly lower
